# Experimental data as given in patent publication US20260325538A1, “THERAPY” (priority 2023, published 2026).
# Legend:
# [1] = system: Acinetobacter baumannii ST15 (NDM-1 OXA-51, ADC-263); test: Checkerboard MIC, fixed concentration of sBLI (Examples 11-17); format: cell-based
# Source text: The antibiotics and serine β-lactamase-inhibitors (sBLIs) were purchased from the following suppliers: Ceftazidime (CAZ): Sigma-Aldrich; Cefepime (FEP): Sigma-Aldrich; Cefpodoxime (CEFP): MedChemExpress; Sulbactam (SUL): Sigma-Aldrich Avibactam (AVI): Biosynth; Vaborbactam (VAB): ABCR; Tazobactam (TAZ): Sigma-Aldrich; Taniborbactam (TAN): Sigma-Aldrich.
# In each of Examples 3-23, the compound of Example 26 of WO 2018/033719 was employed as the zinc chelator. The following abbreviations are used in these examples: sBLI means serine-β-lactamase inhibitor; CFU means colony-forming unit, which is a group of microbes that grows from a single cell on a petri plate; DMSO means dimethyl sulfoxide; MHB means Mueller-Hinton broth; caMHB means cation-adjusted Mueller-Hinton broth; MIC means minimum inhibitory concentration—the lower the MIC, the more efficient the combination against the respective bacterial strain.
# General Protocol 2 Used in Examples 11-23 Employing a Fixed Concentration of sBLI within Each Experiment:
# (§1) Antimicrobial susceptibility testing (AST) by broth microdilution (MIC determination) was performed according to The European Committee on Antimicrobial Susceptibility Testing (EUCAST) guidelines (see Reading guide for broth microdilution Version 5.0, 2024: https://www.eucast.org).
# Sterile clear round bottom polystyrene (non-treated) 96-well microplates (Corning 3788) were used for making serial two-fold dilutions of the antibiotic in cation-adjusted Mueller Hinton II broth (caMHB; Thermo Scientific, T3462, containing 29.4 μM Zn^2+ or MILLIPORE, 90922-500G, containing 5.6 μM Zn^2+), across the columns of the microtiter plate (128-0.06 μg/mL; columns 1-12).
# The checkerboard plates were all modified by adding a serine β-lactamase inhibitor (sBLI) at a fixed concentration of 16 μg/mL. Additionally, the zinc chelator was added at various fixed concentrations. Samples were mixed so that all plates contained a control containing antibiotic alone (no sBLI, no zinc chelator), a sample containing antibiotic and sBLI (double combination; no zinc chelator), and a sample containing antibiotic, sBLI and zinc chelator (triple combination). All test wells used in each plate contained growth medium (caMHB), and inoculated bacteria at a final inoculum between 3-7×10^5 CFU/mL. […] Synergy for the triple combination (antibiotic, sBLI, and zinc chelator) was defined as when the MIC in any of the rows containing the zinc chelator in combination with antibiotic and sBLI (triple combination), was lower than for antibiotic alone and lower than for the antibiotic and sBLI double combination.
# (§2) An X in rows 1-4 in the table indicates growth of the bacterial inoculum, while a blank cell indicates no growth. Concentrations (μg/mL) of FEP are given in row 0. AVI and the zinc chelator were added in fixed concentrations (AVI at 16 μg/mL in rows 2-4, zinc chelator at 16 μg/mL in row 3 and at 8 μg/mL in row 4). As a control, the effect of FEP alone was tested (row 1). All wells contained bacterial growth medium (caMHB, 29.4 μM Zn^2+) and were inoculated with the test bacterium. The grey cells indicate the FEP MIC.
# as §2, with “SUL” for “AVI”, “(SUL” for “(AVI”
# An X in rows 1-4 in the table indicates growth of the bacterial inoculum, while a blank cell indicates no growth. Concentrations (μg/mL) of FEP are given in row 0. TAZ and the zinc chelator were added in fixed concentrations (TAZ at 16 μg/mL in rows 2-4, zinc chelator at 16 μg/mL in row 3 and at 8 μg/mL in row 4). […]
# [2] = system: various bacterial strains harbouring resistance enzymes; test: MIC determination, checkerboard assays (summary statements); format: cell-based; settings: Examples 3-23
# Protocol: Thus, in most of the experiments, a Fractional Inhibitory Concentration Index (FICI) could not be calculated, and the conclusion of synergy was made through visual reading of the bacterial growth in the wells in the combination experiment.
# as §1
# Sterile clear round bottom polystyrene (non-treated) 96-well microplates (Corning 3788) were used for making serial two-fold dilutions of the antibiotic and the serine sBLI in cation-adjusted Mueller Hinton II broth (caMHB; Thermo Scientific, T3462, containing 29.4 μM Zn^2+), across the columns of the microtiter plate (256-0.06 μg/mL; columns 1-12). The checkerboard plates were all made by keeping the sBLI at a fixed ratio relative to antibiotic (absolute concentrations of each, in μg/mL) to all wells containing sample in each plate. Additionally, a set of samples were included in each test plate, where the zinc chelator was added, at various fixed concentrations, of 16 μg/mL, 8 μg/mL and/or 4 μg/mL (as specified in each Example). All sample wells contained growth medium (caMHB), and inoculated bacteria at a final inoculum between 3-7×10^5 CFU/mL. […]
# [3] = system: gram-negative bacteria with MBL, for example Klebsiella pneumoniae, E. coli and Pseudomonas aeruginosa; settings: in combination with meropenem; cited from earlier work
# [4] = system: bacteria which rely on SBLs; settings: in combination with meropenem; cited from earlier work
compound,measurement,setting,value
CN(C[C@H](O)[C@@H](O)[C@H](O)[C@H](O)CO)C(=O)c1ccc(CN(Cc2ccccn2)Cc2ccccn2)nc1 [zinc chelator],synergy with the zinc chelator,"[1]; zinc chelator 4 μg/mL, with CEFP and SUL 16 μg/mL, caMHB 5.6 μM Zn2+",Synergy
same,synergy with the zinc chelator,"[1]; zinc chelator 4 μg/mL, with FEP and AVI 16 μg/mL, caMHB 5.6 μM Zn2+",Synergy
same,synergy with the zinc chelator,"[1]; zinc chelator 8 μg/mL, with CEFP and SUL 16 μg/mL, caMHB 5.6 μM Zn2+",Synergy
same,synergy with the zinc chelator,"[1]; zinc chelator 8 μg/mL, with FEP and AVI 16 μg/mL, caMHB 5.6 μM Zn2+",Synergy
same,synergy with the zinc chelator,"[1]; zinc chelator 8 μg/mL, with FEP and AVI 16 μg/mL, caMHB 29.4 μM Zn2+",Synergy
same,synergy with the zinc chelator,"[1]; zinc chelator 8 μg/mL, with FEP and SUL 16 μg/mL, caMHB 29.4 μM Zn2+",Synergy
same,synergy with the zinc chelator,"[1]; zinc chelator 8 μg/mL, with FEP and TAZ 16 μg/mL, caMHB 5.6 μM Zn2+",Synergy
same,synergy with the zinc chelator,"[1]; zinc chelator 8 μg/mL, with FEP and TAZ 16 μg/mL, caMHB 29.4 μM Zn2+",Synergy
same,synergy with the zinc chelator,"[1]; zinc chelator 16 μg/mL, with CEFP and SUL 16 μg/mL, caMHB 5.6 μM Zn2+",Synergy
same,synergy with the zinc chelator,"[1]; zinc chelator 16 μg/mL, with CEFP and SUL 16 μg/mL, caMHB 29.4 μM Zn2+",Synergy
same,synergy with the zinc chelator,"[1]; zinc chelator 16 μg/mL, with FEP and AVI 16 μg/mL, caMHB 29.4 μM Zn2+",Synergy
same,synergy with the zinc chelator,"[1]; zinc chelator 16 μg/mL, with FEP and SUL 16 μg/mL, caMHB 29.4 μM Zn2+",Synergy
same,synergy with the zinc chelator,"[1]; zinc chelator 16 μg/mL, with FEP and TAZ 16 μg/mL, caMHB 5.6 μM Zn2+",Synergy
same,synergy with the zinc chelator,"[1]; zinc chelator 16 μg/mL, with FEP and TAZ 16 μg/mL, caMHB 29.4 μM Zn2+",Synergy
same,intrinsic antibiotic effect,[2],neither the zinc chelator nor the sBLI have intrinsic antibiotic effect
same,sensitivity of gram-negative bacteria with MBL to meropenem,[3],the sensitivity of these bacteria towards the antibiotic drug is reinstated
same,effect of combination with meropenem,[4],no effect
